According to patent US8952034B2, “Fused heterocyclic compounds as ion channel modulators” (Gilead Sciences, Inc., priority 2009, dated 2015):

What follows are molecules tested against wild-type human cardiac sodium channel, hNav1.5 (Homo sapiens, UniProt Q14524) (assay: Late INa screening assay (automated whole cell patch clamp, PatchXpress)). Conditions: compound at 1 μM; HEK293 cells expressing hNav1.5; late INa generated with 10 μM Tefluthrin (or 50 nM ATX II); read-out: LateINa_1 uM (percent block of late INa).
Type: cell-based
In short: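 Late sodium current through wild-type human hNav1.5 stably expressed in HEK293 cells (no beta subunits) was recorded by automated whole-cell patch clamp on a PatchXpress 7000A at 24-27° C. Late INa was induced with 10 μM Tefluthrin or 50 nM ATX II. Cells were stepped from −120 mV to −20 mV for 250 ms at 0.1 Hz, and percent block was normalized to current in Na-free extracellular solution.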

Sequence of wild-type human cardiac sodium channel, hNav1.5 (Q14524 whole entry): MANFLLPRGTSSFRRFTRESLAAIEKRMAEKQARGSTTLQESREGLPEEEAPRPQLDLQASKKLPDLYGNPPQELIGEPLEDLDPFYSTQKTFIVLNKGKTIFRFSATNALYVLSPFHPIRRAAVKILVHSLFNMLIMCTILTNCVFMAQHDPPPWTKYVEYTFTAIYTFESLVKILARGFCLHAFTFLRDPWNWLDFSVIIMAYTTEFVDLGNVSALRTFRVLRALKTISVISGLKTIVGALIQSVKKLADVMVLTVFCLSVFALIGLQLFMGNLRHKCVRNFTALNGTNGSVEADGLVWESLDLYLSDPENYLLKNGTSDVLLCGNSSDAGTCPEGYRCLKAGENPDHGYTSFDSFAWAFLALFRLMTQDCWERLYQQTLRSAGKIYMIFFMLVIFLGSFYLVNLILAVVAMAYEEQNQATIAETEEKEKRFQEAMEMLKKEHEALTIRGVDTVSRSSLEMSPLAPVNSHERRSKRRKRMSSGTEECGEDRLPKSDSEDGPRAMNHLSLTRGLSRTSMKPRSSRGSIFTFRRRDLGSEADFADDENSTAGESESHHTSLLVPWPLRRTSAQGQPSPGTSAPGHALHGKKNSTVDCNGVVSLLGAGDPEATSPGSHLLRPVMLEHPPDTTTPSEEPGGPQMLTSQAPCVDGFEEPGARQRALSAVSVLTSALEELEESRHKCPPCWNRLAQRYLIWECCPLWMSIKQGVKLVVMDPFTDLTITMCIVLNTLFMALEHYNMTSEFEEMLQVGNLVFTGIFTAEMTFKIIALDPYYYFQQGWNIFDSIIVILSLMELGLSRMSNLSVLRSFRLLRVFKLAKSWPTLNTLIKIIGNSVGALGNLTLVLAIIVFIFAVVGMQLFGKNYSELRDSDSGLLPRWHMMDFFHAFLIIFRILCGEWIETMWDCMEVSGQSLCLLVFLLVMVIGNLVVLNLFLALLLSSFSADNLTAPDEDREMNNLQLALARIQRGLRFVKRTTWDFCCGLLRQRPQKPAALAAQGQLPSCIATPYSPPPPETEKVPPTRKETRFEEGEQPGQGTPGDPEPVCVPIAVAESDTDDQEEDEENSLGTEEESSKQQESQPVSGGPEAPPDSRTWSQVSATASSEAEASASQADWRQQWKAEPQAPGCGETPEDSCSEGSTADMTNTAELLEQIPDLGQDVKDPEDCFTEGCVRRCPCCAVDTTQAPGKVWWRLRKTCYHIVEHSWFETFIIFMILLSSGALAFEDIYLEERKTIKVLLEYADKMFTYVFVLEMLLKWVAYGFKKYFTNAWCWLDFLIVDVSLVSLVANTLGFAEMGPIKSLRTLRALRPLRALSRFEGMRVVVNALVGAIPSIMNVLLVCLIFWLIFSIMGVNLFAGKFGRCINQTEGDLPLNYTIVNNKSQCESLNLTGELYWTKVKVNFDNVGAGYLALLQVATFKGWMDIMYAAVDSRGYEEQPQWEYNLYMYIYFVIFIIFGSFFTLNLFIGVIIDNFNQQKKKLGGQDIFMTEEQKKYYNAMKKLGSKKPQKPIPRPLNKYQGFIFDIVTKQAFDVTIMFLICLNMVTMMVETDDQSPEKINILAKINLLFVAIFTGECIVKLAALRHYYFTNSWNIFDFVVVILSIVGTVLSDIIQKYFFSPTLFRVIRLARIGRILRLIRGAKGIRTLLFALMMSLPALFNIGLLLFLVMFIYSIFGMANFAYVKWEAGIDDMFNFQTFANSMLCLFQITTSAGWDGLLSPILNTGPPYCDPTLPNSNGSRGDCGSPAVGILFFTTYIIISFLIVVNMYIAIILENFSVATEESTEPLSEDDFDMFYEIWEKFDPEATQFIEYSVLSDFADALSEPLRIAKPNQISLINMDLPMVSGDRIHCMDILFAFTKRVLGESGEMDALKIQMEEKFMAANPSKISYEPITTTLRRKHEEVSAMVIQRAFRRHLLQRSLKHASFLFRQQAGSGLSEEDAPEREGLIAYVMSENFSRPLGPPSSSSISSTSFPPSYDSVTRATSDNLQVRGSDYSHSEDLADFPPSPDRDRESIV

| SMILES | inhibition at 1 µM [%] |
| --- | --- |
| Clc1ccc(Oc2ccc(-c3ccc4nnnn4n3)cc2)cc1 [BHN-270, 6-[4-(4-chlorophenoxy)phenyl]tetrazolo[1,5-b]pyridazine] | 21.7 |
| FC(F)(F)Oc1ccc(-c2ccc3nnc(C(F)(F)OCc4cccc(-c5cccnc5)c4)n3c2)cc1 [BHN-306, 3-(difluoro{[3-(pyridin-3-yl)benzyl]oxy}methyl)-6-[4-(trifluoromethoxy)phenyl][1,2,4]triazolo[4,3-a]pyridine] | 49.7 |
| CCOC(=O)COCC(F)(F)c1nnc2ccc(-c3ccc(OC(F)(F)F)cc3)cn12 [BHN-167, ethyl (2,2-difluoro-2-{6-[4-(trifluoromethoxy)phenyl][1,2,4]triazolo[4,3-a]pyridin-3-yl}ethoxy)acetate] | 45.8 |
| CCOC(=O)c1ccc(-c2nnc3ccc(-c4ccc(OC(F)(F)F)cc4)cn23)cc1 [BHN-86, ethyl 4-{6-[4-(trifluoromethoxy)phenyl][1,2,4]triazolo[4,3-a]pyridin-3-yl}benzoate] | 82.7 |
| FC(F)(F)Oc1ccc(-c2ccc3nnc(C(F)(F)OCc4cccnc4)n3c2)cc1 [BHN-204, 3-[difluoro(pyridin-3-ylmethoxy)methyl]-6-[4-(trifluoromethoxy)phenyl][1,2,4]triazolo[4,3-a]pyridine] | 43.9 |
| FC(F)(F)COc1ccc(-c2ccc3cnc(C(F)(F)F)n3c2)cn1 [BHN-179, 6-[6-(2,2,2-trifluoroethoxy)pyridin-3-yl]-3-(trifluoromethyl)imidazo[1,5-a]pyridine] | 49.7 |
| FC1(F)CCN(c2nnc3ccc(-c4ccc(OC(F)(F)F)cc4)cn23)CC1 [BHN-260, 3-(4,4-difluoropiperidin-1-yl)-6-[4-(trifluoromethoxy)phenyl][1,2,4]triazolo[4,3-a]pyridine] | 38.5 |
| Cc1cc(COC(F)(F)c2nnc3ccc(-c4ccc(OC(F)(F)F)cc4)cn23)nn1-c1ccc(Cl)cc1 [BHN-302, 3-[{[1-(4-chlorophenyl)-5-methyl-1H-pyrazol-3-yl]methoxy}(difluoro)methyl]-6-[4-(trifluoromethoxy)phenyl][1,2,4]triazolo[4,3-a]pyridine] | 52.8 |
| FC(F)(F)Oc1ccc(-c2ccc3nnc(C(F)(F)F)n3c2)c(Br)c1 [BHN-124, 6-[2-bromo-4-(trifluoromethoxy)phenyl]-3-(trifluoromethyl)[1,2,4]triazolo[4,3-a]pyridine] | 82 |
| FC(F)(F)Oc1ccc(-c2ccc3nnc(C(F)(F)OCc4ccccn4)n3c2)cc1 [BHN-211, 3-[difluoro(pyridin-2-ylmethoxy)methyl]-6-[4-(trifluoromethoxy)phenyl][1,2,4]triazolo[4,3-a]pyridine] | 57.4 |
| FC(F)(F)c1ccc(-c2ccc3nnc(C(F)(F)OCc4cc(-c5ccccc5)on4)n3c2)cn1 [BHN-319, 3-{difluoro[(5-phenyl-1,2-oxazol-3-yl)methoxy]methyl}-6-[6-(trifluoromethyl)pyridin-3-yl][1,2,4]triazolo[4,3-a]pyridine] | 30.5 |
| Fc1ccc(COCc2nnc3ccc(-c4ccc(OC(F)(F)F)cc4)cn23)cc1 [BHN-227, 3-{[(4-fluorobenzyl)oxy]methyl}-6-[4-(trifluoromethoxy)phenyl][1,2,4]triazolo[4,3-a]pyridine] | 79.8 |
| FC(F)(F)COc1ccc(-c2ccc3nnc(C(F)(F)F)n3c2)cn1 [BHN-92, 6-[6-(2,2,2-trifluoroethoxy)pyridin-3-yl]-3-(trifluoromethyl)[1,2,4]triazolo[4,3-a]pyridine] | 63.5 |
| FC(F)(F)Oc1ccc(-c2ccc3nnc(C(F)(F)F)n3c2)c2ncccc12 [BHN-161, 5-(trifluoromethoxy)-8-[3-(trifluoromethyl)[1,2,4]triazolo[4,3-a]pyridin-6-yl]quinoline] | 49.5 |
| FC(F)(F)Oc1ccc(-c2ccc3nnc(C(F)(F)OCc4cccc5ncccc45)n3c2)cc1 [BHN-281, 5-[(difluoro{6-[4-(trifluoromethoxy)phenyl][1,2,4]triazolo[4,3-a]pyridin-3-yl}methoxy)methyl]quinoline] | 53.9 |
| FC(F)(F)Oc1ccc(-c2ccc3nnc(COCc4ccc(Cl)cc4Cl)n3c2)cc1 [BHN-250, 3-{[(2,4-dichlorobenzyl)oxy]methyl}-6-[4-(trifluoromethoxy)phenyl][1,2,4]triazolo[4,3-a]pyridine] | 79.1 |
| CC(=O)Nc1cc(OC(F)(F)F)ccc1-c1ccc2nnc(-c3ccc(OC(F)(F)F)cc3)n2c1 [BHN-116, N-[5-(trifluoromethoxy)-2-{3-[4-(trifluoromethoxy)phenyl][1,2,4]triazolo[4,3-a]pyridin-6-yl}phenyl]acetamide] | 16.4 |
| FC(F)(F)Oc1ccc(-c2ccc3nnc(C(F)(F)F)n3c2)cc1C(F)(F)F [BHN-189, 6-[4-(trifluoromethoxy)-3-(trifluoromethyl)phenyl]-3-(trifluoromethyl)[1,2,4]triazolo[4,3-a]pyridine] | 56.9 |
| O=C(NCC(F)(F)c1nnc2ccc(-c3ccc(OC(F)(F)F)cc3)cn12)c1ccccn1 [BHN-184, N-(2,2-difluoro-2-{6-[4-(trifluoromethoxy)phenyl][1,2,4]triazolo[4,3-a]pyridin-3-yl}ethyl)pyridine-2-carboxamide] | 29.8 |
| N#Cc1cc(Cl)ccc1Nc1ccc(-c2ccc3nnc(C(F)(F)F)n3c2)cc1 [BHN-276, 5-chloro-2-({4-[3-(trifluoromethyl)[1,2,4]triazolo[4,3-a]pyridin-6-yl]phenyl}amino)benzonitrile] | 16.2 |
| COCC(F)(F)c1nnc2ccc(-c3ccc(Oc4ccc(F)cc4)cc3)cn12 [BHN-138, 3-(1,1-difluoro-2-methoxyethyl)-6-[4-(4-fluorophenoxy)phenyl][1,2,4]triazolo[4,3-a]pyridine] | 42.8 |
| FC(F)(F)c1nnc2ccc(-c3ccc(OC(F)(F)c4cccnc4)cc3)cn12 [BHN-271, 6-{4-[difluoro(pyridin-3-yl)methoxy]phenyl}-3-(trifluoromethyl)[1,2,4]triazolo[4,3-a]pyridine] | 19.9 |
| CC1(c2ccc(-c3ccc4nnc(C(F)(F)F)n4c3)cc2)OCCO1 [BHN-162, 6-[4-(2-methyl-1,3-dioxolan-2-yl)phenyl]-3-(trifluoromethyl)[1,2,4]triazolo[4,3-a]pyridine] | 29.9 |
| c1ccc(Oc2ccc(-c3ccc4nnnn4c3)cc2)cc1 [BHN-97, 6-(4-phenoxyphenyl)tetrazolo[1,5-a]pyridine] | 73.2 |
| FC(F)(F)COc1ccc(-c2ccc3nnc(C(F)(F)F)n3c2)nn1 [BHN-187, 6-[6-(2,2,2-trifluoroethoxy)pyridazin-3-yl]-3-(trifluoromethyl)[1,2,4]triazolo[4,3-a]pyridine] | 15.2 |
| COCC(F)(F)c1nnc2ccc(-c3cc(F)c(Oc4ccccc4)c(F)c3)cn12 [BHN-233, 3-(1,1-difluoro-2-methoxyethyl)-6-(3,5-difluoro-4-phenoxyphenyl)[1,2,4]triazolo[4,3-a]pyridine] | 31.4 |
| Cc1cc(OC(F)(F)F)ccc1-c1ccc2nnc(C(C)C)n2n1 [BHN-33, 6-[2-methyl-4-(trifluoromethoxy)phenyl]-3-(propan-2-yl)[1,2,4]triazolo[4,3-b]pyridazine] | 59.2 |
| Cn1c(COC(F)(F)c2nnc3ccc(-c4ccc(OC(F)(F)F)cc4)cn23)nc2ccccc21 [BHN-296, 3-{difluoro[(1-methyl-1H-benzimidazol-2-yl)methoxy]methyl}-6-[4-(trifluoromethoxy)phenyl][1,2,4]triazolo[4,3-a]pyridine] | 40.1 |
| CC(OC(F)(F)c1nnc2ccc(-c3ccc(OC(F)(F)F)cc3)cn12)c1ccc(Cl)cc1Cl (stereo not drawn) [BHN-247, 3-{[1-(2,4-dichlorophenyl)ethoxy](difluoro)methyl}-6-[4-(trifluoromethoxy)phenyl][1,2,4]triazolo[4,3-a]pyridine] | 74.1 |
| Fc1ccc(COCC(F)(F)c2nnc3ccc(-c4ccc(OC(F)(F)F)cc4)cn23)cc1F [BHN-190, 3-{2-[(3,4-difluorobenzyl)oxy]-1,1-difluoroethyl}-6-[4-(trifluoromethoxy)phenyl][1,2,4]triazolo[4,3-a]pyridine] | 24.3 |

Same assay, conditions: compound at 10 μM; HEK293 cells expressing hNav1.5; late INa generated with 10 μM Tefluthrin (or 50 nM ATX II); read-out: LateINa_10 uM (percent block of late INa)

| SMILES | inhibition at 10 µM [%] |
| --- | --- |
| Nc1cc(-c2ccc(OC(F)(F)F)cc2)cn2c(-c3ccccc3)nnc12 [BHN-52, 3-phenyl-6-[4-(trifluoromethoxy)phenyl][1,2,4]triazolo[4,3-a]pyridin-8-amine] | 44.9 |
| CCOC(=O)c1ccc(-c2nnc3ccc(-c4ccc(OC(F)(F)F)cc4)cn23)cc1 [BHN-86, ethyl 4-{6-[4-(trifluoromethoxy)phenyl][1,2,4]triazolo[4,3-a]pyridin-3-yl}benzoate] | 86.9 |
| FC(F)c1nnc2cnc(-c3ccc(Oc4ccccc4)cc3)cn12 [BHN-18, 3-(difluoromethyl)-6-(4-phenoxyphenyl)[1,2,4]triazolo[4,3-a]pyrazine] | 54.6 |
| FC(F)(F)COc1ccc(-c2ccc3nnc(C(F)(F)F)n3c2)cn1 [BHN-92, 6-[6-(2,2,2-trifluoroethoxy)pyridin-3-yl]-3-(trifluoromethyl)[1,2,4]triazolo[4,3-a]pyridine] | 76.3 |
| Fc1cc(-c2ccc3nnc(C(F)(F)F)n3c2)ccc1Cl [BHN-14, 6-(4-chloro-3-fluorophenyl)-3-(trifluoromethyl)[1,2,4]triazolo[4,3-a]pyridine] | 28.3 |
| Cc1cc2nnc(C(F)(F)F)n2cc1-c1cccc(OC(F)(F)F)c1 [BHN-17, 7-methyl-6-[3-(trifluoromethoxy)phenyl]-3-(trifluoromethyl)[1,2,4]triazolo[4,3-a]pyridine] | 25.3 |
| CN1CCN(Cc2cc(-c3ccc4nnc(C(F)(F)F)n4c3)ccc2OC(F)(F)F)CC1 [BHN-81, 6-{3-[(4-methylpiperazin-1-yl)methyl]-4-(trifluoromethoxy)phenyl}-3-(trifluoromethyl)[1,2,4]triazolo[4,3-a]pyridine] | 30.3 |
| Cc1cc(OC(F)(F)F)ccc1-c1ccc2nnc(C(C)C)n2n1 [BHN-33, 6-[2-methyl-4-(trifluoromethoxy)phenyl]-3-(propan-2-yl)[1,2,4]triazolo[4,3-b]pyridazine] | 75.9 |
| Cc1cc(-c2ccc(Oc3ccccc3)cc2)cn2ncnc12 [BHN-349, 8-methyl-6-(4-phenoxyphenyl)[1,2,4]triazolo[1,5-a]pyridine] | 65.1 |
